According to patent US9630969B2, “N-alkyl tryptanthrin derivative, preparation method for same, and application thereof” (SHANGHAI TIN TSZ BIO VALLEY BIOLOGICAL ENGINEERING CO., LTD, priority 2013, dated 2017):
pIC50: −log10 of the molar value. Where two headings read alike, the source gives them in different places.

Columns and labels:
[1] = molecular target: T1, human IDO (Homo sapiens, UniProt P14902); assay: Determination of whether the inhibitor is reversible (v~[E] plot); assay type: biochemical; settings: constant inhibitor concentration, different IDO enzyme amounts, 300 mM L-tryptophan, 37° C. 30 minutes
T1 construct: made in house; host or cells: Escherichia coli
Protocol: In case that the inhibitor concentration was constant, a series of enzymes of different concentrations are reacted with the inhibitor and the reaction rate was measured. The reaction rate to the enzyme concentration (v˜[E]) was plotted, thus it can be determined that whether it is a reversible inhibitor according to the curve characteristics.
The mixture was incubated under 37° C. for 5 min, then different volumes of IDO enzymes were added. The reaction was conducted at 37° C. for 30 minutes and was terminated by adding 30% (w/v) trichloroacetic acid (200 μl). The reaction system was heated at 65° C. for 15 minutes to convert the formyl kynurenine to kynurenine, and then rotated under 12000 rpm for 10 minutes. The supernatant was taken to mix with isometric solution of p-dimethyl amidogen benzaldehyde in acetic acid (2% (w/v)). The off scale reading at 490 nm was observed using a Microplate Reader. The v˜[E] was plotted.

[2] = molecular target: T1, human IDO; assay: biochemical
Protocol: The reaction was conducted under 37° C. for 30 minutes and was terminated by 30% (w/v) trichloroacetic acid (200 μl). The reaction system was heated under 65° C. for 15 minutes to convert the formyl kynurenine into kynurenine, and then rotated under 12000 rpm for 10 minutes. The supernatant was taken to mix with isometric p-dimethyl amidogen benzaldehyde in acetic acid (2% (w/v)) solution. The yellow color caused by the reaction of the mixture and kynurenine, can be observed at 490 nm by using Microplate Reader. The results were calculated with IC50 calculation software (see Table 1).

[3] = 150 mM substrate L-tryptophan, pH 6.5, 37° C. 30 minutes, read at 490 nm, read-out: IC50(in vitro)

T1 sequence (P14902 whole entry): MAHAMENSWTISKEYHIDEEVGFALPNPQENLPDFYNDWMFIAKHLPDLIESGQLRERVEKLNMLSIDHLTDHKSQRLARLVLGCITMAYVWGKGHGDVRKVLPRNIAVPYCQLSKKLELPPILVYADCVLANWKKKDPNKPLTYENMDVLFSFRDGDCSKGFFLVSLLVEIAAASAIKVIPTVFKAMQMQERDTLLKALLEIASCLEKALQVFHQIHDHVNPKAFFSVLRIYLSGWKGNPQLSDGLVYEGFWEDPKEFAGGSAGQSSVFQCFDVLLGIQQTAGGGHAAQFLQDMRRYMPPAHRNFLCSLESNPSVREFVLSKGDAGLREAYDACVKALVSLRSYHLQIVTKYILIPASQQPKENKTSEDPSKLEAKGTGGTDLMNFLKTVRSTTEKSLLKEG

Compound	Reversible Inhibitor or Not [1]	pIC50 [2]	pIC50 [2, 3]
O=C1c2c(N3CCNCC3)cccc2-n2c1nc1ccccc1c2=O [Comparison 1, 7-piperazine tryptanthrin, reference compound]	Reversible	4.26	–
O=C1c2cc(F)ccc2-n2c1nc1ccc(N3CCCCC3)cc1c2=O [Compound 9]	Reversible	–	5.74
CN1CCN(c2ccc3nc4n(c(=O)c3c2)-c2ccccc2C4=O)CC1 [Compound 11]	Reversible	–	5.10
CN(C)c1ccc2nc3n(c(=O)c2c1)-c1ccc(F)cc1C3=O [Compound 7]	Reversible	–	4.99
CN1CCN(c2ccc3nc4n(c(=O)c3c2)-c2ccc(F)cc2C4=O)CC1 [Compound 6]	Reversible	–	5.66
O=C1c2cc(F)ccc2-n2c1nc1ccc(N3CCNCC3)cc1c2=O [Compound 5]	Reversible	–	5.92
